Source: patent US12077503B2, “Substituted cyclic amides and their use as herbicides” (FMC CORPORATION, priority 2015, dated 2024)

Key:
Type in all cases: in vivo
[1] = tested on: sedge, umbrella (small-flower umbrella sedge, Cyperus difformis); assay: Test B flooded paddy test; conditions: 250 g ai/ha, Flood, 0 to 100 scale where 0 is no effect and 100 is complete control
Summary of the method: (§1)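 Greenhouse paddy pots with 2-leaf stage plants received compound by direct addition to floodwater 3 cm deep, kept at that level. Scored visually at 13–15 d versus controls (0 no effect; 100 complete control).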

[2] = tested on: ducksalad (Heteranthera limosa); assay: Test B flooded paddy test; conditions: 250 g ai/ha, Flood, 0 to 100 scale where 0 is no effect and 100 is complete control
Summary of the method: as §1

rice (Oryra sativa) = assay: Test B flooded paddy test; conditions: 250 g ai/ha, Flood, 0 to 100 scale where 0 is no effect and 100 is complete control
Summary of the method: as §1

[3] = tested on: barnyardgrass (Echinochloa crus-galli); assay: Test B flooded paddy test; conditions: 250 g ai/ha, Flood, 0 to 100 scale where 0 is no effect and 100 is complete control
Summary of the method: as §1

[4] = tested on: pigweed (Amaranthus retroflexus); assay: Test A postemergence; conditions: for Plant response rating, Pigweed: 500 g ai/ha
Summary of the method: (§2)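 Seeds sprayed preemergence with a directed soil spray, or plants at 2 to 10 cm height and one- to two-leaf stage sprayed postemergence, with test chemicals in a non-phytotoxic solvent mixture containing surfactant, in loam soil–sand blend. Injury rated visually against untreated controls after about 10 d in greenhouse, 0 (no effect) to 100 (complete control).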

[5] = tested on: Galium (catchweed bedstraw, Galium aparine); assay: Test A postemergence
Summary of the method: as §2

[6] = tested on: wheat (Triticum aestivum); assay: Test A postemergence
Summary of the method: as §2

corn (Zea mays) = assay: Test A postemergence
Summary of the method: as §2

[7] = tested on: giant foxtail (Setaria faberii); assay: Test A postemergence
Summary of the method: as §2

[8] = tested on: ragweed (common ragweed, Ambrosia elatior); assay: Test A postemergence; conditions: for Plant response rating, Ragweed: 500 g ai/ha
Summary of the method: as §2

[9] = tested on: ryegrass, Italian (Italian ryegrass, Lolium multiflorum); assay: Test A postemergence
Summary of the method: as §2

[10] = tested on: blackgrass (Alopecurus myosuroides); assay: Test A postemergence; conditions: for Plant response rating, Blackgrass: 500 g ai/ha
Summary of the method: as §2

Kochia (Kochia scoparia) [11] = assay: Test A postemergence
Summary of the method: as §2

[12] = tested on: barnyardgrass (Echinochloa crus-galli); assay: Test A postemergence
Summary of the method: as §2

[13] = tested on: pigweed (Amaranthus retroflexus); assay: Test A preemergence; conditions: for Pigweed plant response rating (0 to 100 scale, 0 is no effect, 100 is complete control): Preemergence
[14] = tested on: giant foxtail (Setaria faberii); assay: Test A preemergence
Summary of the method: as §2

[15] = tested on: ragweed (common ragweed, Ambrosia elatior); assay: Test A preemergence
Summary of the method: as §2

[16] = tested on: ryegrass, Italian (Italian ryegrass, Lolium multiflorum); assay: Test A preemergence
Summary of the method: as §2

Kochia (Kochia scoparia) [17] = assay: Test A preemergence
Summary of the method: as §2

[18] = tested on: barnyardgrass (Echinochloa crus-galli); assay: Test A preemergence
Summary of the method: as §2

[19] = postemergence, visual injury, 0 to 100 scale (0 no effect, 100 complete control), approx. 10 d
[20] = 125 g ai/ha, Postemergence, visual injury after approximately 10 d, 0 to 100 scale where 0 is no effect and 100 is complete control
[21] = 500 g ai/ha, postemergence, visual injury, 0 to 100 scale (0 no effect, 100 complete control), approx. 10 d
[22] = 500 g ai/ha, preemergence, visual injury rating about 10 d after treatment, 0 to 100 scale (0 no effect, 100 complete control)
[23] = 125 g ai/ha, postemergence, visual injury rating on 0 to 100 scale (0 no effect, 100 complete control), approx. 10 d
[24] = postemergence, 0 to 100 scale, 0 no effect, 100 complete control
[25] = 500 g ai/ha, postemergence, 0 to 100 scale, 0 no effect, 100 complete control
[26] = 125 g ai/ha, preemergence, 0 to 100 scale (0 no effect, 100 complete control)
[27] = Preemergence, 500 g ai/ha, visual injury approx. 10 d

Cc1ccc([C@H]2CN(C)C(=O)[C@@H]2C(=O)Nc2ccccc2[S+](C)[O-])cc1Cl (single isomer, unassigned) [Compound 1016]
pest or weed control at 250 g/ha ([1]; Cyperus difformis, read-out: Sedge, Umbrella plant response rating): 0% | Ducksalad plant response rating [2]: 0 | pest or weed control at 250 g/ha (rice (Oryra sativa); Oryza sativa, read-out: Rice plant response rating): 30% | Barnyardgrass plant response rating [3]: 0 | Plant response rating, Pigweed [4, 19]: 0 | pest or weed control at 125 g/ha ([4]; Amaranthus retroflexus, post-emergence, 240 h, 125 g ai/ha, Postemergence, visual injury after approximately 10 d, 0 to 100 scale where 0 is no effect and 100 is complete control, read-out: Plant response rating, Pigweed): 0% | Plant response rating, Galium [5, 20]: 0 | Plant response rating, Galium [5, 21]: 0 | Plant response rating, Wheat [6, 20]: 0 | Plant response rating, Wheat [6, 21]: 0 | Plant response rating, Corn (corn (Zea mays); [20]): 0 | Plant response rating, Corn (corn (Zea mays); [21]): 0 | Plant response rating, Foxtail, Giant [7, 20]: 30 | pest or weed control at 500 g/ha ([7]; Setaria faberi, post-emergence, 240 h, 500 g ai/ha, postemergence, visual injury, 0 to 100 scale (0 no effect, 100 complete control), approx. 10 d, read-out: Plant response rating, Foxtail, Giant): 80% | Plant response rating, Ragweed [8, 19]: 0 | pest or weed control at 125 g/ha ([8]; Ambrosia artemisiifolia, post-emergence, 240 h, 125 g ai/ha, Postemergence, visual injury after approximately 10 d, 0 to 100 scale where 0 is no effect and 100 is complete control, read-out: Plant response rating, Ragweed): 0% | Plant response rating, Ryegrass, Italian [9, 20]: 0 | Plant response rating, Ryegrass, Italian [9, 21]: 0 | Plant response rating, Blackgrass [10, 19]: 0 | pest or weed control at 125 g/ha ([10]; Alopecurus myosuroides, post-emergence, 240 h, 125 g ai/ha, Postemergence, visual injury after approximately 10 d, 0 to 100 scale where 0 is no effect and 100 is complete control, read-out: Plant response rating, Blackgrass): 0% | Plant response rating, Kochia (Kochia (Kochia scoparia) [11]; [20]): 0 | Plant response rating, Kochia (Kochia (Kochia scoparia) [11]; [21]): 0 | Plant response rating, Barnyardgrass [12, 20]: 50 | pest or weed control at 500 g/ha ([12]; Echinochloa crus-galli, post-emergence, 240 h, 500 g ai/ha, postemergence, visual injury, 0 to 100 scale (0 no effect, 100 complete control), approx. 10 d, read-out: Plant response rating, Barnyardgrass): 90% | Pigweed plant response rating (0 to 100 scale, 0 is no effect, 100 is complete control) ([13]; 125 g ai/ha, visual injury rating after approximately 10 d): 0 | Pigweed plant response rating [13, 22]: 0 | pest or weed control at 125 g/ha ([14]; Setaria faberi, pre-emergence, 240 h, 125 g ai/ha, Preemergence, visual injury rating after approximately 10 d, read-out: Foxtail, Giant plant response rating (0 to 100 scale, 0 is no effect, 100 is complete control)): 90% | pest or weed control at 500 g/ha ([14]; Setaria faberi, pre-emergence, 240 h, 500 g ai/ha, preemergence, visual injury rating about 10 d after treatment, 0 to 100 scale (0 no effect, 100 complete control), read-out: Foxtail, Giant plant response rating): 90% | Ragweed plant response rating [15, 22]: 0 | pest or weed control at 125 g/ha ([15]; Ambrosia artemisiifolia, pre-emergence, 240 h, 125 g ai/ha, Preemergence, visual injury rating after approximately 10 d, read-out: Ragweed plant response rating (0 to 100 scale, 0 is no effect, 100 is complete control)): 0% | Ryegrass, Italian plant response rating [16, 22]: 0 | pest or weed control at 125 g/ha ([16]; Lolium multiflorum, pre-emergence, 240 h, 125 g ai/ha, Preemergence, visual injury rating after approximately 10 d, read-out: Ryegrass, Italian plant response rating (0 to 100 scale, 0 is no effect, 100 is complete control)): 0% | Kochia plant response rating (Kochia (Kochia scoparia) [17]; [22]): 0 | pest or weed control at 125 g/ha (Kochia (Kochia scoparia) [17]; Bassia scoparia, pre-emergence, 240 h, 125 g ai/ha, Preemergence, visual injury rating after approximately 10 d, read-out: Kochia plant response rating (0 to 100 scale, 0 is no effect, 100 is complete control)): 0% | pest or weed control at 125 g/ha ([18]; Echinochloa crus-galli, pre-emergence, 240 h, 125 g ai/ha, Preemergence, visual injury rating after approximately 10 d, read-out: Barnyardgrass plant response rating (0 to 100 scale, 0 is no effect, 100 is complete control)): 90% | pest or weed control at 500 g/ha ([18]; Echinochloa crus-galli, pre-emergence, 240 h, 500 g ai/ha, preemergence, visual injury rating about 10 d after treatment, 0 to 100 scale (0 no effect, 100 complete control), read-out: Barnyardgrass plant response rating): 90%

Cc1cc(C2CNC(=O)C2C(=O)Nc2cccc(F)c2F)ccc1F (stereo not drawn) [Compound 400]
Plant response rating, Sedge, Umbrella ([1]; 13 to 15 d): 0 | Plant response rating, Ducksalad ([2]; 13 to 15 d): 100 | Plant response rating, Rice (rice (Oryra sativa); 13 to 15 d): 20 | Plant response rating, Barnyardgrass ([3]; 13 to 15 d): 65 | Pigweed plant response rating [4, 23]: 30 | Plant response rating, Pigweed [4, 24]: 50 | Galium plant response rating [5, 23]: 40 | Plant response rating, Galium [5, 25]: 60 | Wheat plant response rating [6, 23]: 30 | Plant response rating, Wheat [6, 25]: 70 | Corn plant response rating (corn (Zea mays); [23]): 20 | Plant response rating, Corn (corn (Zea mays); [25]): 80 | Foxtail, Giant plant response rating [7, 23]: 50 | Plant response rating, Foxtail, Giant [7, 25]: 70 | Ragweed plant response rating [8, 23]: 40 | Plant response rating, Ragweed [8, 24]: 50 | Ryegrass, Italian plant response rating [9, 23]: 20 | Plant response rating, Ryegrass, Italian [9, 25]: 90 | Blackgrass plant response rating [10, 23]: 60 | Plant response rating, Blackgrass [10, 24]: 60 | Kochia plant response rating (Kochia (Kochia scoparia) [11]; [23]): 60 | Plant response rating, Kochia (Kochia (Kochia scoparia) [11]; [25]): 70 | Barnyardgrass plant response rating [12, 23]: 90 | Plant response rating, Barnyardgrass [12, 25]: 90 | Plant response rating, Pigweed [13, 26]: 60 | Pigweed plant response rating (0 to 100 scale, 0 is no effect, 100 is complete control) ([13]; 500 g ai/ha, visual injury approx. 10 d): 60 | Plant response rating, Foxtail, Giant [14, 26]: 90 | Foxtail, Giant plant response rating (0 to 100 scale, 0 is no effect, 100 is complete control) [14, 27]: 100 | Plant response rating, Ragweed [15, 26]: 70 | Ragweed plant response rating (0 to 100 scale, 0 is no effect, 100 is complete control) [15, 27]: 90 | Plant response rating, Ryegrass, Italian [16, 26]: 30 | Ryegrass, Italian plant response rating (0 to 100 scale, 0 is no effect, 100 is complete control) [16, 27]: 40 | Plant response rating, Kochia (Kochia (Kochia scoparia) [17]; [26]): 60 | Kochia plant response rating (0 to 100 scale, 0 is no effect, 100 is complete control) (Kochia (Kochia scoparia) [17]; [27]): 80 | Plant response rating, Barnyardgrass [18, 26]: 90 | Barnyardgrass plant response rating (0 to 100 scale, 0 is no effect, 100 is complete control) [18, 27]: 100
